Assay results as given in article PMC13313556, “Development and characterization of triazole-based WDR5 inhibitors for the treatment of glioblastoma” (JCI Insight, 2026).

Tests used:
[1] = system: RPS24, PYGL, CKMT1, SALL2, NID2, PYGB, RPL14 transcripts; assay: RT-qPCR of WDR5-target genes in patient-derived CSCs (L0, L1, L2, DI318, 3832); assay type: cell-based, human; conditions: 72 hours
Procedure: Cells were harvested by centrifugation (5 minutes, 500g) into 2 mL Eppendorf Tubes and total RNA was purified on spin columns using the RNeasy Plus Kit (Qiagen, includes gDNA removal columns). In total, 2.5 μg of total RNA was treated with ezDNAse (Thermo Fisher) and then reverse transcribed with the SuperScript IV VILO RT Master Mix (Invitrogen). cDNA was diluted 1:100 in nuclease-free water and then transcripts were quantified using the PowerUp SYBR Green Master Mix (Thermo Fisher) on a QuantStudio 3 qPCR machine according to the manufacturer’s recommendations. Primer sets are provided in the Supporting Information. Raw Cq values were normalized per sample to the housekeeper ACTB and then the fold-change relative to DMSO treated cells was calculated as FC = 2^–ΔΔCq.

[2] = system: DI318 flank PDX tumors; assay: DI318 flank xenograft, tumor volume; assay type: in vivo, NSG mice; conditions: 30 mg/kg once a day i.p. over 7 days
Procedure: (A) NOD-scid (NSG) mice were inoculated subcutaneously in the right flank with 2 × 10⁶ DI318 CSCs suspended in 100 μL of PBS:Matrigel (1:1). Over the next 6-7 days tumors developed to the point where a small mass was visual. A digital caliper measurement (length and width) were taken to get a baseline tumor size. Mice
Compounds were formulated in 20% HP β-cyclodextrin (BCD) and administered once daily via IP injection at 30 mg/kg for 7 consecutive days.
Endpoint ellipsoid tumor volume was calculated and compared using a t-test.

[3] = system: L0 CSCs; assay: Extreme limiting dilution assay (ELDA) in L0; assay type: cell-based, human; conditions: 14 days
Procedure: L0 and DI318 CSCs were split with Accutase as single cells into NBMc. In total, 200 μL of CSCs were seeded into each well of a 96-well TC treated plate (n = 10 well per density) at 50, 25, 13, 6, 3, and 1.5 cells/well. […] The stem cell frequency was quantified and treatments were compared with DMSO as described by Hu and Smyth ([98]).

[4] = target: WDR5 (Homo sapiens, UniProt P61964); set-up: human WDR5 residues Ser22-Cys334 were codon optimized for E. coli; made in house; host or cells: E. coli T7 Express lysY/Iq (New England Biolabs), pET27 plasmid; conditions: read-out: direct WDR5 Ki; cited from earlier work

Compound	IC50 ([1]; Homo sapiens, L0 and DI318, 5 genes, read-out: average IC50 of transcriptional downregulation (qPCR))	PYGB expression log2FC ([1]; L0, L2, DI318, 3832, 200 nM)	PYGL and CKMT1 downregulation ([1]; all 5 CSC models, 200 nM)	RPL14 expression ([1]; all 5 CSC models, 200 nM)	RPS24 downregulation ([1]; all 5 CSC models, 200 nM)	effect on tumor growth [2]	L0 ELDA stem cell frequency (1 in N) ([3]; 20 nM)	L0 ELDA stem cell frequency (1 in N) ([3]; 200 nM)	L0 ELDA stem cell frequency (1 in N) ([3]; 2000 nM)	Ki [4]
COc1cc(Cn2nnc3c2CCc2c(-c4cn(C)nc4C(F)(F)F)cc(Cn4ccnc4C)cc2-3)cc(OC)c1 [C3TD078]	80 nM	< 1.0	~ 4 fold	unaffected	~ 2 fold	did not reduce tumor growth	1.3	2.2	2.1	–
COc1cc(CN2CCc3c(cc(Cn4ccn(C)c4=N)cc3-c3ccc(F)cc3C)C2=O)cc(OC)c1 [C16, reference compound]	–	–	–	–	–	–	–	–	–	< 0.02 nM
